Test results taken from ChEMBL document CHEMBL4602719, “Discovery of Potent, Selective, and Orally Bioavailable Inhibitors of USP7 with In Vivo Antitumor Activity” (J Med Chem, 2020).

Columns and labels:
[1] = biological target: T1, Ubiquitin carboxyl-terminal hydrolase 47 (Homo sapiens, UniProt Q96K76); assay: Inhibition of USP47 (unknown origin) by biochemical assay
T1 sequence (Q96K76 whole entry): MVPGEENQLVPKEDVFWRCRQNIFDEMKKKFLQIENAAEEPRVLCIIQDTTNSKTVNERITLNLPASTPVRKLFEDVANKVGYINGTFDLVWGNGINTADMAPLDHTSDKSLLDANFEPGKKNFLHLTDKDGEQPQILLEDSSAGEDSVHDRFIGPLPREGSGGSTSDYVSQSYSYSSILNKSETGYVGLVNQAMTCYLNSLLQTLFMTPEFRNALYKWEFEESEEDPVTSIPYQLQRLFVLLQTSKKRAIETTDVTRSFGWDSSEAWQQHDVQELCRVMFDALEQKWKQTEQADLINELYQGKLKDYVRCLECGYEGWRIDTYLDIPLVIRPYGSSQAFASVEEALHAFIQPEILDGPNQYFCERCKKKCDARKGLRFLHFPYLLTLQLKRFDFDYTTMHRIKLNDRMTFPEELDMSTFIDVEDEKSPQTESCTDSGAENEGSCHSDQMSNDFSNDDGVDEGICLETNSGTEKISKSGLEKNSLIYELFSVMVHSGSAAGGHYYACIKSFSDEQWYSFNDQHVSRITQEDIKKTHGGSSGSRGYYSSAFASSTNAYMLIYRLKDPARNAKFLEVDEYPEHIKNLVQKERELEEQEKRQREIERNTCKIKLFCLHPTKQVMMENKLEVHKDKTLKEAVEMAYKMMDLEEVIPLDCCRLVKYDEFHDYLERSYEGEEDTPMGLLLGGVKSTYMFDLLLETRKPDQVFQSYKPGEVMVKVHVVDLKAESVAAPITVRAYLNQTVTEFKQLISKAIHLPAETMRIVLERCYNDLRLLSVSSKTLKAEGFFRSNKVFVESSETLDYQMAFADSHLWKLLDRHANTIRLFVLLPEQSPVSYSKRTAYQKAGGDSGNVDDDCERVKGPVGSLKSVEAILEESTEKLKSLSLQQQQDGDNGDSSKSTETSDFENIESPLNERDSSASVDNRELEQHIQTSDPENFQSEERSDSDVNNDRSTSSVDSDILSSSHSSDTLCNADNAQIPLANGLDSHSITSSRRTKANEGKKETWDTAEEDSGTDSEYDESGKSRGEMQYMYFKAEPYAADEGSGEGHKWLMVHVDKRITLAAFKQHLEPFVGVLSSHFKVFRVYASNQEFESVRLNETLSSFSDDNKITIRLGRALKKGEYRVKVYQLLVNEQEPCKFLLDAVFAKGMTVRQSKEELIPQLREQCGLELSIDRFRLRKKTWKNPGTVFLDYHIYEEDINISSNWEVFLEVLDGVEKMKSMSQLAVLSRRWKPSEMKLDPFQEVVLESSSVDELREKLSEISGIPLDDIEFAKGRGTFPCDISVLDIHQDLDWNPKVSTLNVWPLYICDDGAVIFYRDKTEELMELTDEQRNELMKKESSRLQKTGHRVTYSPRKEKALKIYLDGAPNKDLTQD

[2] = biological target: T2, Ubiquitin carboxyl-terminal hydrolase 7 (Homo sapiens, UniProt Q93009); assay: Inhibition of recombinant full length USP7 (unknown origin) using ubiquintin-rhodamine as substrate preincubated for 30 mins followed by substrate addition measured after 1 hr by fluorescence-based Envision plate reader assay
T2 sequence (Q93009 whole entry): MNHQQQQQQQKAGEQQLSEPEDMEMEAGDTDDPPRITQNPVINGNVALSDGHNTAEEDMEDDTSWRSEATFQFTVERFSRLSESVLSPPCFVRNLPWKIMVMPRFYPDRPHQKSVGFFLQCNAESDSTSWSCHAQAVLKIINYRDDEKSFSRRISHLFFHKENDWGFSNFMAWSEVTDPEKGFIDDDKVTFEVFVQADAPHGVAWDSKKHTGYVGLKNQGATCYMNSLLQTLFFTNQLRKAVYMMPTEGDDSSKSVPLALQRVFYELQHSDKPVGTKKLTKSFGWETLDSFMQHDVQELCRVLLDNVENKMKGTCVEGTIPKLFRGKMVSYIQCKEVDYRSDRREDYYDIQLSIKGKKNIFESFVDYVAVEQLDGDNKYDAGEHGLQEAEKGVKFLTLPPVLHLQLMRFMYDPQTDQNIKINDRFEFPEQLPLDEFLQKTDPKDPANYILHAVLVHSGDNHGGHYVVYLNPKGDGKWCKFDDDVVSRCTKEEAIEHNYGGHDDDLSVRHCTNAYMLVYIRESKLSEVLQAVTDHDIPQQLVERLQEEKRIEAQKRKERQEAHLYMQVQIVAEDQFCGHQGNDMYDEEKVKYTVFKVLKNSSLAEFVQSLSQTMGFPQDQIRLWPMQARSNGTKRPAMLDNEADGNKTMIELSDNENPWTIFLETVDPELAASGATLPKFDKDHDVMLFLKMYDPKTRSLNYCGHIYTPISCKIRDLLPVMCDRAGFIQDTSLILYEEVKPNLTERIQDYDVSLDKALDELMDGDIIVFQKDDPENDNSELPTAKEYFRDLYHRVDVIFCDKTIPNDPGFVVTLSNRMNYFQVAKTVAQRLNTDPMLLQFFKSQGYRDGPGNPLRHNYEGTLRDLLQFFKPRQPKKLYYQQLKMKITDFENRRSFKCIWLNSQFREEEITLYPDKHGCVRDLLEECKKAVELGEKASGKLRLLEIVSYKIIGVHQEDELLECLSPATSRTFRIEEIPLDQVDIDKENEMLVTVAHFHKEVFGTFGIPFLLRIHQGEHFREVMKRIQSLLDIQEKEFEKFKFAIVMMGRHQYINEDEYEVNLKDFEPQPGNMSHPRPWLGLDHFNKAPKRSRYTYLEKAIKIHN

NCI-H526 = assay: Cytotoxicity against human NCI-H526 cells expressing p53 mutant assessed as reduction in cell viability measured after 5 days by CellTiter-Glo assay; format: functional; settings: NCI-H526, 120 h
MM1.S = assay: Cytotoxicity against human MM1S cells expressing wild type p53 assessed as reduction in cell viability measured after 5 days by CellTiter-Glo assay; format: functional; settings: 120 h
[3] = biological target: T2, Ubiquitin carboxyl-terminal hydrolase 7; assay: Inhibition of USP7 in human RKO cells transfected with p53 luciferase reporter vector assessed as increase in p53-dependent luciferase activity measured after 18 hrs by BrightGlo luciferase assay; format: cell-based
[4] = biological target: Voltage-gated inwardly rectifying potassium channel KCNH2 (Homo sapiens, UniProt Q12809); assay: Inhibition of human ERG
Voltage-gated inwardly rectifying potassium channel KCNH2, sequence (Q12809 whole entry): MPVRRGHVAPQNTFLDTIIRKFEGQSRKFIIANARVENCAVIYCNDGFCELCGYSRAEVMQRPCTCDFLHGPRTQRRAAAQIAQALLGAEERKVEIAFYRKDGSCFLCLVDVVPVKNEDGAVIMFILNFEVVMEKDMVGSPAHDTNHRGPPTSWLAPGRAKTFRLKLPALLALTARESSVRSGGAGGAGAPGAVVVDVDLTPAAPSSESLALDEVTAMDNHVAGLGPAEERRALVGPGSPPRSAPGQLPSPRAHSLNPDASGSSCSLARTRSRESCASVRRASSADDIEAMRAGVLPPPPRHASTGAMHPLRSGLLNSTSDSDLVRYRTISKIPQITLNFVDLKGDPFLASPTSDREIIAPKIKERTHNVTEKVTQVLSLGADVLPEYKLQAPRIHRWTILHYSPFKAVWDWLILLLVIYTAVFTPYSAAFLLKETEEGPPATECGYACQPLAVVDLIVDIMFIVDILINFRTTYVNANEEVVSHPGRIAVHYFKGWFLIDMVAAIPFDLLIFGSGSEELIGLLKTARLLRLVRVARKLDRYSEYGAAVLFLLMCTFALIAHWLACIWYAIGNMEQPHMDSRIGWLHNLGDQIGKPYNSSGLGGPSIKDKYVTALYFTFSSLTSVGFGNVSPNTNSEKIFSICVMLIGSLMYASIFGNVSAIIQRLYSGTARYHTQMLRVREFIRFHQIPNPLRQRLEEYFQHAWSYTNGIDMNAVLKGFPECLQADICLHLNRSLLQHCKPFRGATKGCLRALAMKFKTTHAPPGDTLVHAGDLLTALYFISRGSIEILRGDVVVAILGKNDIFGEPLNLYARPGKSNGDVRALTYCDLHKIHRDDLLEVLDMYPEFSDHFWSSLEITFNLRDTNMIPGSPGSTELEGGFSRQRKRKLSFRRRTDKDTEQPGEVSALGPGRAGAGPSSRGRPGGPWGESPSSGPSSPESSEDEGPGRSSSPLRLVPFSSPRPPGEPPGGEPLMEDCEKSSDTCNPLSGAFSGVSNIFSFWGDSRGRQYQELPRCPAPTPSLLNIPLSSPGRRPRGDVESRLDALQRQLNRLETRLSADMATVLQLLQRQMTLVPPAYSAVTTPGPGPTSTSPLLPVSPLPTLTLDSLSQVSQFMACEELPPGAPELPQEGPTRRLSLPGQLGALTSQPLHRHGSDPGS

[5] = Stability of compound in human hepatocytes assessed as parent compound remaining incubated for 60 mins; format: ADME, cell-based, Hepatocyte; settings: read-out: Stability
[6] = Clearance in Sprague-Dawley rat at 0.5 mg/kg, iv; format: ADME, organism-based; settings: in vivo
[7] = Stability of compound in rat hepatocytes assessed as parent compound remaining incubated for 60 mins; format: ADME, cell-based, Hepatocyte; settings: read-out: Stability
[8] = biological target: T3, Ubiquitin carboxyl-terminal hydrolase 1 (Homo sapiens, UniProt O94782); assay: Inhibition of His6-tagged human USP1 expressed in insect Sf21 cells coexpressing untagged UAF1 assessed as cleavage of Ubiquitin-Rhodamine110-glycine to Ubiquitin and Rhodamine110-glycine using Ubiquitin-Rhodamine110-glycine as substrate by fluorescence based analysis
T3 sequence (O94782 whole entry): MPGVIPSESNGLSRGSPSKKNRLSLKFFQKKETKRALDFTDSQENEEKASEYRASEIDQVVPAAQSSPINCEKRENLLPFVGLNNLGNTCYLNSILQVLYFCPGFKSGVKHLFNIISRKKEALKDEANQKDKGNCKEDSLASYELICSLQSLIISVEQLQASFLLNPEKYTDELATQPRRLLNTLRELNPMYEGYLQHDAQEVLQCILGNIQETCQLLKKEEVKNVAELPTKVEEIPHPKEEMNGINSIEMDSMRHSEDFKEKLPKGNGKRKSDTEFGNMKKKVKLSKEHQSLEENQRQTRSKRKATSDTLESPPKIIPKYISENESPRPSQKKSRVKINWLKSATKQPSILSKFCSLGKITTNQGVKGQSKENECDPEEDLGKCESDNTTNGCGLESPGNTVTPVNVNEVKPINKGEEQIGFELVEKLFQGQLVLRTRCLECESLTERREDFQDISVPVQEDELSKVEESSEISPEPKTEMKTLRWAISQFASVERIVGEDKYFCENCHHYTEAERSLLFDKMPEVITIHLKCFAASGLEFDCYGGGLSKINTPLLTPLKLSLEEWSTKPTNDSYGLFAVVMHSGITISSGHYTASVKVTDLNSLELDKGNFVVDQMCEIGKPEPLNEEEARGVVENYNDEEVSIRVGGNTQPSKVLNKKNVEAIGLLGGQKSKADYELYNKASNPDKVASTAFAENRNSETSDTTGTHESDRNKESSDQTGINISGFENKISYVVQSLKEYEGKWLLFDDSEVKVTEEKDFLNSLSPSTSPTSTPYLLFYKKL

[9] = AUC in Sprague-Dawley rat at 2 mg/kg, po; format: ADME, organism-based; settings: in vivo

Row | Structure (SMILES) | IC50 [1] [nM] | IC50 [2] [nM] | EC50 [3] [nM] | further results
1 | O=C1CCCN1Cc1cc2nccc(-c3cc(Cl)cc4c3O[C@@H](C(=O)N3CCNCC3)C4)c2s1 | > 20000 | 26 |  | 
2 | Cc1cc(Cl)cc(-c2ccnc3cc(CN4C(=O)C5CC5C4=O)sc23)c1C[C@@H]1CNCCO1 (some centres undefined) |  | 0.16 | 35 | CC50 (NCI-H526): 3600 nM; CC50 (MM1.S): 210 nM; IC50 [4]: 8000 nM
3 | O=C1CCC(=O)N1Cc1cc2nccc(-c3cc(Cl)ccc3O[C@@H]3CNC[C@@H]3F)c2s1 |  | 207 |  | 
4 | O=C([C@H]1Cc2cc(Cl)cc(-c3ccnc4cc(CN5C(=O)CCC5=O)sc34)c2O1)N1CCNCC1 | > 2000 | 0.18 |  | remaining at 1 h [5]: 37%; clearance [6]: 192 mL/min/kg; remaining at 1 h [7]: 14%
5 | Cn1nc2c(c1[C@H]1Cc3cc(Cl)cc(-c4ccnc5cc(CN6C(=O)CCC6=O)sc45)c3O1)CNCC2 |  | 1.1 |  | remaining at 1 h [5]: 63%; clearance [6]: 78.3 mL/min/kg; remaining at 1 h [7]: 42%
6 | O=C([C@H]1Cc2cc(Cl)cc(-c3ccnc4ccsc34)c2O1)N1CCNCC1 | > 40000 | 90 |  | IC50 [8]: > 40000 nM
7 | Cc1cc(Cl)cc(-c2ccnc3cc(CN4C(=O)CCC4=O)sc23)c1CN1CCNCC1 |  | 32 | 1200 | 
8 | O=C1CCC(=O)N1Cc1cc2nccc(-c3cc(Cl)cc4c3O[C@@H](c3ocnc3CN3CCC3)C4)c2s1 |  | 13 |  | remaining at 1 h [5]: 14%; remaining at 1 h [7]: 2%
9 | O=C([C@H]1Cc2cc(Cl)cc(-c3ccnc4cc(C5(O)COC5)sc34)c2O1)N1CCNCC1 | > 40000 | 73 |  | 
10 | Cc1cc2nccc(-c3cc(Cl)cc4c3O[C@@H](C(=O)N3CCNCC3)C4)c2s1 | > 80000 | 130 |  | IC50 [8]: > 80000 nM
11 | O=C(C1Cc2cc(Cl)cc(-c3ccnc4[nH]ccc34)c2O1)N1CCNCC1 (racemic) | > 80000 | 930 |  | IC50 [8]: > 80000 nM
12 | Cc1cc(Cl)cc(-c2ccnc3cc(CN4C(=O)CCC4=O)sc23)c1OCC1(F)CNC1 |  | 1.5 | 320 | 
13 | O=C([C@H]1Cc2cc(Cl)cc(-c3ccnc4cc(C(O)(CO)CCl)sc34)c2O1)N1CCNCC1 (some centres undefined) | > 40000 | 9 |  | 
14 | Cc1cc(Cl)cc(-c2ccnc3cc(CN4C(=O)CCC4=O)sc23)c1O[C@@H]1CNC[C@@H]1F |  | 1.2 | 560 | AUC [9]: 130 ng·h/mL; clearance [6]: 35 mL/min/kg
15 | Cc1cc(Cl)cc(-c2ccnc3cc(CN4C(=O)C5CC5C4=O)sc23)c1C[C@H]1OCCN[C@@H]1C (mixture of isomers) |  | 1.5 | 210 | CC50 (MM1.S): 310 nM
16 | Cc1cc(Cl)cc(-c2ccnc3cc(CN4C(=O)C5CC5C4=O)sc23)c1O[C@@H]1CCNC[C@@H]1C (some centres undefined) |  | 1.1 | 170 | 

Row | Structure (SMILES) | IC50 [1] [nM] | IC50 [2] [nM] | EC50 [3] [nM] | further results
17 | O=C([C@H]1Cc2cc(Cl)cc(-c3ccnc4cc(CO)sc34)c2O1)N1CCNCC1 | > 40000 | 43 |  | IC50 [8]: > 40000 nM
18 | Cc1cc(Cl)cc(-c2ccnc3cc(CN4C(=O)CCC4=O)sc23)c1CN1CCNC[C@@H]1C |  | 6.6 | 280 | 
19 | Cc1cc(Cl)cc(-c2ccnc3cc(CN4C(=O)C5CC5C4=O)sc23)c1C[C@@H]1CNC[C@@H](C)O1 (mixture of isomers) |  | 0.39 | 60 | CC50 (MM1.S): 120 nM
20 | Cc1cc(Cl)cc(-c2ccnc3cc(CN4C(=O)C5C(C4=O)C5(C)C)sc23)c1CC1CCCNC1 (centres undefined) |  | 1.3 | 130 | 
21 | CC(=O)NCc1cc2nccc(-c3cc(Cl)cc4c3O[C@@H](C(=O)N3CCNCC3)C4)c2s1 | > 80000 | 25 |  | 
22 | O=C1CCC(=O)N1Cc1cc2nccc(-c3cc(Cl)cc4c3O[C@@H](c3onc5c3CNCC5)C4)c2s1 |  | 0.38 |  | remaining at 1 h [5]: 26%; clearance [6]: 96.7 mL/min/kg; remaining at 1 h [7]: 4%
23 | Cc1cc(Cl)cc(-c2ccnc3cc(CN4C(=O)CCC4=O)sc23)c1CN1[C@@H](C)CNC[C@@H]1C |  | 0.32 | 60 | CC50 (NCI-H526): 2200 nM; CC50 (MM1.S): 135 nM; IC50 [4]: 2700 nM
24 | Cc1cc(Cl)cc(-c2ccnc3cc(CN4C(=O)CCC4=O)sc23)c1OC1CCNCC1 |  | 8 | 400 | AUC [9]: 44 ng·h/mL; clearance [6]: 5.5 mL/min/kg
25 | Cc1cc(Cl)cc(-c2ccnc3cc(CN4C(=O)C5C(C4=O)C5(C)C)sc23)c1NC1CCCNC1 (centres undefined) |  | 0.78 | 33 | 
26 | Cc1cc(Cl)cc(-c2ccnc3cc(CN4C(=O)CCC4=O)sc23)c1O[C@H]1C[C@H](N)C1 |  | 3.4 | 150 | 
27 | Cc1cc(Cl)cc(-c2ccnc3cc(CN4C(=O)CCC4=O)sc23)c1O[C@@H]1CCNC[C@@H]1C |  | 2.1 | 150 | AUC [9]: 860 ng·h/mL; clearance [6]: 1.17 mL/min/kg
28 | Cc1cc(Cl)cc(-c2ccnc3cc(Cn4c(=O)ccn(CC(F)(F)F)c4=O)sc23)c1O[C@@H]1CCNC[C@@H]1C |  | 0.26 | 42 | AUC [9]: 52 ng·h/mL; clearance [6]: 16.7 mL/min/kg
29 | O=C([C@H]1Cc2cc(Cl)cc(-c3ccnc4cc(Cn5cnccc5=O)sc34)c2O1)N1CCNCC1 | > 5000 | 27 |  | 
30 | Cc1cc(Cl)cc(-c2ccnc3cc(CN4C(=O)C5C(C4=O)C5(C)C)sc23)c1OC1CCCNC1 (centres undefined) |  | 2.4 | 250 | 
31 | O=C([C@H]1Cc2cc(Cl)cc(-c3ccnc4[nH]ccc34)c2O1)N1CCNCC1 | > 80000 | 450 |  | IC50 [8]: > 80000 nM
32 | Cc1cc(Cl)cc(-c2ccnc3cc(CN4C(=O)CCC4=O)sc23)c1O[C@H]1CCCNC1 |  | 4.6 | 180 | AUC [9]: 170 ng·h/mL; clearance [6]: 81.7 mL/min/kg
